Laboratory results: patent publication US20050075398A1, “Neuroprotectin D1 protects against cellular apoptosis, stroke damage, alzheimer's disease and retinal diseases” (priority 2003, published 2005)

Legend:
[1] = system: STAT-1-DNA binding; assay: EMSA of STAT-1 in hippocampus after MCA-O; format: in vivo, mouse; conditions: 1 h MCA-O, 2 h reperfusion, NPD1 0.16 μg/ml infused 3 h
Description: Electrophoretic mobility-shift assay (EMSA) of human AP1, HIF-1α, NF-κBp50/p65, and STAT-1α. Nuclear protein extracts (NPXTs) were prepared from one to three 3.5 cm-diameter wells of HN cells and quantitated. NPXTs (5 μg) derived from HN cells were incubated with[γ-^32P]-ATP (˜3000 Ci/mmol)-end-labeled AP1, HIF-1α, NF-κκBp50/p65, or STAT-1α consensus and mutant oligonucleotides in 5-μl volumes, reacted for 30 min on ice, analyzed on 5% or 10% acrylamide/90 mM Tris-borate pH 8.4, 1 mM EDTA (TBE) gels, dried onto 2-mm Whatman filter paper at 80° C. for 2 h, and phosphorimaged using a Typhoon Variable Mode Imager (Amersham Pharmacia Biotech, Piscataway, N.J. ).
FIGS. 7A, 7B, and 7C show mouse hippocampus after 1 h MCA-O was followed by 2 h reperfusion, where either vehicle, DHA, or 10,17S-docosatriene (NPD1) (0.16 μg/ml) was infused into the third ventricle for 3 h at 0.25 μl/h. […] NF-κB was increased over two fold in the ipsilateral hippocampus after MCA-O, and the infusion of either DHA or 10,17S-docosatriene (NPD1) inhibited ischemia-reperfusion-induced NF-κB activation by 28% and 48%, respectively (FIG. 7A).

[2] = system: ARPE-19 cells; assay: DNA fragmentation by differential sedimentation after 3H-thymidine labeling; format: cell-based, human; conditions: 50 nM; TNF-α 10 ng and H2O2 800 μM for 6-8 h
Description: DNA fragmentation assay: Cells (80% confluent) growing in DMEM (10% FBS) in 6-well plates were labeled with 1 μCi ^3H-thymidine per well for 24 h at 37° C. The day-old medium was replaced to remove the unincorporated ^3H-thymidine. Cells were then serum-starved for 1 h and treated with TNFα plus H2O2 for 6-8 h. Cells were harvested, centrifuged at 200×g for 10 min at 4° C. An aliquot of the supernatant was precipitated with 25% TCA, and radioactivity was measured. This represents the amount of ^3H-thymidine released during the oxidative stress induced by TNFα plus H2O2 The cell pellet was solubilized in lysis buffer (0.2% Triton X-100 in 10 mM Tris/EDTA). The intact DNA and fragmented DNA were separated by centrifugation at 13,000×g for 10 min at 4° C. Fragmented DNA was precipitated from the supernatant with 25% TCA. The pellets were resuspended in 1% SDS and radioactivity was measured. This represents the intact DNA in the cells. The amount of DNA fragmentation is expressed as percentage of fragmented DNA over the control, as described in Kim, H. Y., Akbar, M., Lau, A. & Edsall, L. (2000) J. Biol. Chem. 275:35215-35223.
These observations indicate that oxidative stress triggered DNA fragmentation and RPE apoptosis, and that the increase in NPD1 inhibited RPE cell death. […] DNA fragmentation was evaluated after TCA precipitation and expressed as percentage over intact DNA. […]

CC/C=C\C[C@H](O)\C=C/C=C/C=C/[C@H](O)C/C=C\C/C=C\CCC(=O)O [NPD1, 10,17S-docosatriene]
effect on STAT-1-DNA binding [1]: small effect | effect on DNA fragmentation (3H-thymidine) [2]: inhibited
